One data set has as its system diarrhea. The data set can be described thus: Inducing effect of diarrhea (rats, oral administration).
Data set [1] concerns Diclofenac sodium-induced stomach ulcer. The data set can be described thus: Administering time of Ornoprostil and suppression of Diclofenac sodium-induced stomach ulcer. In kind it is in vivo, rat. To be noted: for Antiulcer coefficient: inhibition ratio/incidence rate; for Incidence rate of ulcer (Number of Examples): rat oral.
Data set [2] deals with glycerol-induced nephropathy. The data set can be described thus: Glycerol-induced nephropathy. It is filed as in vivo, rat. As to conditions: serum 48 hours after glycerol. The procedure: After weighing SPF/Crj strain maleness rats (9 weeks of ages), they were so divided that average weight of each group might almost be equal. At 48 hours after 50% glycerol (10 ml/kg) (medium: physiological salt solution) was subcutaneously administered to rats deprived water for 48 hours (±2 hour) on […], about 1.5 ml of blood was gathered from the jugular under ether anesthesia. […] Water was supplied to them 2 hour later from administration of glycerol. Those serums were obtained by centrifugal separation (for about 4° C., 3000 rpm, for 15 minutes) of the gathered blood. Urea nitrogen (abbreviated as UN.) (urease·GIDH method) and creatinine (abbreviated as CRE.) (Creatininase·F-DAOS method) in the obtained serum were measured with the biochemistry automated analyzer (AU400 (trade name), Olympus Optical Co., Ltd.).

[3] abbreviates: OU 0 minutes before Di administering.
[4] abbreviates: OU 5 minutes after Di administering.
Setting [5] is: OU 5 minutes before Di administering.
The mark [6] stands for this setting: OU 10 minutes after Di administering.
Setting [7] is: OU 10 minutes before Di administering.
[8] abbreviates: OU 30 minutes after Di administering.
Where [9] appears, read: OU 30 minutes before Di administering.
Setting [10] is: OU 60 minutes after Di administering.
[11] abbreviates: OU 60 minutes before Di administering.
[12] abbreviates: GC (subcutis) + OU (10 μg) oral.

The text below walks through data of patent US20040068014A1 (priority 2001, published 2004).

With “15-deoxy-16-hydroxy-16-methyl-PGE1 methyl ester [Misoprostol]”, the results for the “Number of animals which cause diarrhea/number of laboratory animals” value with diarrhea (50 μg/kg) and in the data set on diarrhea (100 μg/kg) were 0/5 and 1/5, respectively.

For the compound `CCCC[C@H](C)C[C@H](O)/C=C/[C@H]1[C@H](O)CC(=O)[C@@H]1CC(=O)CCCCC(=O)OC` [Ornoprostil, 17S, 20-dimethyl-6-keto PGE1 methyl ester], the Antiulcer coefficient worked out at 86.9 in data set [1] (setting [3]); 7.1 in data set [1] (setting [4]); 100.9 in data set [1] (setting [5]); 28.8 in data set [1] (setting [6]); 125.1 in data set [1] (setting [7]); 16.1 in data set [1] (setting [8]). Further, the Antiulcer coefficient in data set [1] (setting [9]) was 56.2; in data set [1] (setting [10]) it was 4.1; in data set [1] (setting [11]), 97.3. Moreover, the “Incidence rate of ulcer (Number of Examples)” value in data set [1] (setting [3]) is 7/8; in data set [1] (setting [4]), 7/8; in data set [1] (setting [5]) it was 6/8; in data set [1] (setting [6]), 8/8; in data set [1] (setting [7]) it was 5/8; in data set [1] (setting [8]), 7/8. Besides, the “Incidence rate of ulcer (Number of Examples)” value was 7/8 in data set [1] (setting [9]), 6/8 in data set [1] (setting [10]) and 7/8 in data set [1] (setting [11]). Further, the “Dose which generates induced effect of diarrhea” value in the data set with diarrhea was not below 0.4 mg/kg. In addition, the “CRE (serum creatinine)” value in data set [2] (GC (subcutis) + OU (3 μg) oral) is recorded as 1.38 mg/dL; in data set [2] (setting [12]), 1.03 mg/dL. The entries for the “UN (serum urea nitrogen)” value in data set [2] (GC (subcutis) + OU (3 μg) oral) and in data set [2] (setting [12]) were 89.7 mg/dL and 79.9 mg/dL, respectively.
